Reference: US8175808B2, “Method for determining disease treatment duration” (Sloan Kettering Institute for Cancer Research, priority 2005, dated 2012)

Key:
[1] = test system: MX-1 or MAXF401 human breast cancer xenografts; assay: Tumor volume growth in mice bearing human breast cancer xenografts; drug effect DE(t) and time point of maximum impact (TPMI) from Gompertzian/polynomial fits; type: in vivo; conditions: for maximum drug effect, DE(TPMI): dimensionless; for elapsed time to zero crossing of derivative DE'(t) (TPMI) / elapsed time after start of treatment to relative maximum in DE(t) (TPMI): pooled data, 14 days on/7 off; for elapsed time after start of treatment to relative maximum in DE(t) (TPMI): first cycle
Excerpt: The untreated series of measurements reveal the progression of the disease without treatment, and therefore it is not obtained from a patient to be treated using the method. Typically the untreated series of measurements describes the progression of the disease in one or more historical cases, or test subjects, or both. For example, the untreated series of measurements describes the progression of tumor volume with time in breast cancer victims who are not treated for some number of weeks. In the illustrated embodiment, described further in later sections, the untreated series of measurements describe tumor volume in mice bearing MX-1 or MAXF401 human breast cancer xenografts approximately every two days for about seven weeks (50 days). FIG. 2A is a graph 210 that illustrates, as solid-filled circles 216, pooled measurements of tumor volume growth for untreated breast cancer in xenograft models (MX-1). Untreated tumor growth is sometimes called “naïve growth.” The horizontal axis 212 indicates the passage of time in days since an initial time. The vertical axis 214 indicates the tumor volume in cubic millimeters (mm^3). The solid trace 218 represents a model fit to the data as described in more detail below.
In the illustrated embodiment, described further in later sections, two treated series of measurements describe tumor volume in mice bearing MX-1 or MAXF401 human breast cancer xenografts approximately every two days for about seven weeks (50 days) during treatment. The treatment involves administering the drug XELODA according to the standard protocol: a 14-day duration of administering the drug at a particular dose, followed by a 7 day hiatus in administering the drug. One treatment uses a lower dose of 1.5 millimoles (mmol) per kilogram (kg) of victim weight per day (mmol/kg/day). A second treatment uses a higher dose of 2.25 mmol/kg/day. Each of the two treated series describes the progression of tumor volume with time in the treated victim of the disease, and includes an initial measurement of tumor volume at or near when the treatment was started, for example just before the first injection of the drug. The initial measurement is used in a later step to relate a treated series to the untreated series, which typically occur in different subjects.
In step 130, a temporal series of effectiveness values is determined. Any method may be used to determine an effectiveness value. In the illustrated embodiment, each effectiveness value indicates the ratio between the rate of change of the physical property for the treated disease and the rate of change for the untreated disease at a corresponding time. For purposes of illustration, it is assumed that the temporal progression of the physical property for the untreated disease is represented by the function Pu(t) and that its rate of change is given by its first time derivative Pu′(t). Similarly, it is assumed that the temporal progression of the physical property for the treated disease is represented by the function Pt(t) and that its rate of change is given by its first time derivative Pt′(t). It is further assumed that the temporal progression of the ratio is represented by the function R(t) and is given by Equation 1 R(t)=Pt′(t)/Pu′(t) (1). In other embodiments, a different definition of ratio is used. For example, in some embodiments the ratio given by the reciprocal of R(t) is used. In the illustrated embodiments, R is the ratio of two physical properties with the same units and is therefore dimensionless.
An effectiveness parameter is often defined that indicates the ratio R(t) but offers a more useful description of the effect of a treatment than the ratio itself. […]

[2] = test system: MX-1 or MAXF401 human breast cancer xenografts; conditions: 6 weeks, CDS (days on/off) 14/7, 5/2, 2/5, 7/7, 4 dose levels plus control; Yanagisawa, Proc. AACR 2004; cited from earlier work

## CCCCCOC(=O)Nc1nc(=O)n([C@@H]2O[C@H](C)[C@@H](O)[C@H]2O)cc1F [capecitabine]
[1]; 7-day duration/7-day hiatus, high dose 2.5 mmol/kg/day
  maximum drug effect, DE(TPMI): about 0.8
[1]; follow-up experiment, higher daily dose with 7 on/7 off
  maximal DE, 7 on/7 off CDS compared with 14 on/7 off CDS: increased maximal DE
[1]; higher dose 2.25 mmol/kg/day
  elapsed time to zero crossing of derivative DE'(t) (TPMI): 8.3 days
  elapsed time after start of treatment to relative maximum in DE(t) (TPMI): 8 days
[1]; lower dose 1.5 mmol/kg/day
  elapsed time to zero crossing of derivative DE'(t) (TPMI): 10.1 days
  elapsed time after start of treatment to relative maximum in DE(t) (TPMI): 10 days
[1]; pooled mice, dose levels analyzed (1.5 and 2.25 mmol/kg/day), 14/7 CDS
  time point of maximum impact (TPMI), averaged, days into therapy: 8.3 to 10.1 days
[1]; standard protocol, 14-day duration/7-day hiatus
  maximum drug effect, DE(TPMI): about 0.65
[2]
  effectiveness of CDS regimens: all were effective at an appropriate dose
